Data on 20 compounds can be found in patent US20240336625A1, “SULFONIMIDAMDE COMPOUNDS AND USES THEREOF” (Genentech, Inc., priority 2021, published 2024).

pIC50: −log10 of the molar value. Like-named read-outs stand apart in the source and are kept apart here. A value given as a limit tells only on which side of the number the result lay.

Data set [1] has as its system NLRP3 dependent inflammasome pathway. Description: THP-1 ASC-GFP Speck Assay. The format is cell-based. The conditions noted are these: THP1-ASC-GFP; THP-1 ASC-GFP cells, LPS primed, 10 μM nigericin. Here is the method:
Cell Culture: THP-1 ASC-GFP cell line is purchased from Invivogen, San Diego, for inflammasome activation assay. THP-1 ASC-GFP cells stably express a 37.6 kDa ASC::GFP fusion protein that enables monitoring of spec formation by microscopy after activation of NLRP3 dependent inflammasome pathway. Cells are maintained at a density of 600,000 cells/mL in growth media consisting of RPMI 1640, 2 mM L-glutamine, 25 mM HEPES and 10% heat inactivated fetal bovine serum at 37° C. and 5% CO2. Cells are passaged every 3-4 days and used for assays for up to 20 passages.
NLRP3 inflammasome activation assay: THP-1 ASC-GFP cells are collected by centrifuging cells at 800 RPM for 5 minutes. Cell culture supernatant is removed and cells are resuspended in fresh media at density of 1×10^6 cells/mL in assay media consisting of RPMI 1640, 2 mM L-glutamine, 25 mM HEPES and 10% heat inactivated fetal bovine serum.
Phorbol 12-myristate 13-acetate (PMA) (Invivogen, tlrl-pma) is added to the cell suspension at a final concentration of 500 ng/ml and mixed thoroughly. 40,000 cells are added per well of a 384 well plate and differentiated into macrophages overnight at 37° C. and 5% CO2. […]
Imaging ASC-GFP specks: THP-1 ASC-GFP cells are imaged in 488 and Hoechst channels. […] Percentage of cells with a spec is calculated by dividing the number of GFP positive spots by total number of cells.

In the next data set the target is T1, hPXR nuclear receptor (Homo sapiens, UniProt O75469).
T1 construct: expressed in transfected cells
T1 sequence (O75469 1-434): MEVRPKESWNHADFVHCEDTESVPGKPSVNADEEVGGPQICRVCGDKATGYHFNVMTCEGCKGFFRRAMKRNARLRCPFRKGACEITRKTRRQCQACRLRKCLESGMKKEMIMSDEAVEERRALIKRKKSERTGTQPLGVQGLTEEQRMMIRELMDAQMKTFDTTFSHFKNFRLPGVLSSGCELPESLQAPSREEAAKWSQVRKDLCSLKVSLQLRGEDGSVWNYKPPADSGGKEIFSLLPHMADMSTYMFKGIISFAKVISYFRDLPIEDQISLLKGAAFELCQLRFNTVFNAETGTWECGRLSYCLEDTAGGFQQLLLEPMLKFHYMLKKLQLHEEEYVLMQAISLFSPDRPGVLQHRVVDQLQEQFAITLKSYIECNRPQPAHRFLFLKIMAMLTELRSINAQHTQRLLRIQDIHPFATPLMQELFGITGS
Briefly: PXR Activation Assay. The format is cell-based. The conditions noted are these: relative to positive control (rifampicin). On the procedure:
Hepatoma cells either expressing an endogenous human […] or transfected with the hPXR nuclear receptor and the corresponding response elements were seeded in a 96-well plate. Twenty-four hours after seeding, the cells were treated with six distinct concentrations of test compounds in duplicate wells, and cells then returned to the incubator for an additional 24 h. At the end of this incubation period, the number of viable cells/well was determined using Promega's Cell Titer Fluor cytotoxicity assay. Following this assay, Promega's ONE-Glo was added to the same wells and reporter gene activity assessed.
Data processed using MS-Excel was provided as the mean (n=2) of the fold receptor activation relative to vehicle-treated cells at each of the six different doses. All activation data was normalized to the number of viable cells/well. Results were also expressed as a percentage of the response given by the appropriate positive control (rifampicin) at a 10 μM dose. EC50 and Emax values were derived for positive controls using nonlinear regression of log dose-response curves.

In data set [2] the test system is NLRP3 inflammasome pathway. Description: Human Whole Blood Assay (IL-1β release, LPS + ATP). The format is cell-based. The following applies: read-out: HWB IC90. Here is the method:
The ability of selected compounds to inhibit IL-1beta production in human blood was assessed in a human whole blood assay with lipopolysaccharide.
Fresh human whole blood (HWB) was obtained from healthy donors. […] At the end of stimulation, the plates were centrifuged 2 min×3000 rpm, and supernatant transferred into fresh plates and stored at −80° C. until IL-1β analysis. IL-1b levels were measured using electrochemiluminescence immunoassay with an anti-IL-1b antibody as a primary detection agent.

A short description of data set [3]: Rat Pharmacokinetic (PK) Studies. The format is in vivo, Sprague-Dawley rats. The following applies: male, Sprague-Dawley, plasma; for bioavailability: 1 mg/kg PO vs 0.5 mg/kg IV cassette dose. Here is the method:
Studies were performed at WuXi AppTech Co., Ltd (Shanghai, P.R. China). Food and water were available ad libitum except for animals that were dosed oral doses in pharmacokinetic (PK) studies, which were fasted overnight before dosing of test compounds. Six male Sprague-Dawley rats, aged 6-9 weeks with body weight of 200-300 g were obtained from Vital River Laboratory Animal Technology Co., Ltd., Beijing, P.R. China and were randomly allocated to two dose groups (3 rats were used for the IV group and 3 rats for the PO group). Animals in Group 1 were given a single IV bolus cassette dose of 0.5 mg/kg of test compounds at a dose volume of 1 mL/kg, formulated in DMSO/PEG400/Water (10/60/30). Animals in Group 2 were given a 1 mg/kg PO cassette dose of test compounds at a dose volume of 1 mL/kg, formulated in 0.5% Methyl cellulose/0.2% Tween 80 (MCT) as a suspension. Blood samples were collected via catheter at the femoral artery into tubes containing K2EDTA as an anticoagulant. Both groups were sampled at 0.033, 0.083, 0.25, 0.5, 1, 2, 4, 8 and 24 hours post-dose for blood. All samples were stored at −80° C. until analysis. The concentration of test compounds in each blood or plasma sample was determined by LC-MS/MS analysis.
PK parameters were calculated by noncompartmental methods as described in Gibaldi and Perrier (1982) using Phoenix™ WinNonlin (Certara, Princeton, NJ) version 8.3.4.295. Parameters are presented as mean±SD. Bioavailability (F) was determined by dividing the dose-normalized area under the plasma concentration-time curve from time 0 extrapolated to infinity (AUCinf) for each animals dosed orally by the dose-normalized mean AUCinf determined from the animals dosed intravenously.

Setting [4] is: Homo sapiens, LPS 200 ng/mL, ATP 1.75 mM, IL-1β.
Setting [5] is: read-out: Rat Half Life (converted).

As a reminder, the pIC50 is the IC50 on a negative log10 scale, so that one unit is a factor of ten. High values mean a low IC50, low ones a high IC50. What is called IC90 is the concentration needed for an effect of 90%. The half-life is how long it takes for the measured level to halve.

`C[C@]1(CO)Cn2ncc([S@](N)(=O)=NC(=O)Nc3c4c(c(F)c5c3CC5)CC4)c2O1` (single isomer, unassigned) [Compound G] had a negative logarithm of the IC50 (pIC50) in data set [1] of 8.96.
On to `C[C@@H]1COc2c(S(N)(=O)=NC(=O)Nc3c4c(cc5c3CCC5)CCC4)cnn2C1` (single isomer, unassigned) [XG], for which the “% PXR activation @ 10 μM” value at hPXR nuclear receptor is on record as 25%. In addition, the IC90 in data set [2] (setting [4]) turned out to be 770 nM. Moreover, the bioavailability in data set [3] came out at 28%.
For `CC1(CO)COc2c(S(N)(=O)=NC(=O)Nc3c4c(cc5c3CCC5)CCC4)cnn2C1` (single isomer, unassigned) [XJ], the “% PXR activation @ 10 μM” value on hPXR nuclear receptor was 2.4%. In data set [2] (setting [4]), the IC90 worked out at 700 nM.
Consider `CC1(CO)COc2c(S(N)(=O)=NC(=O)Nc3c4c(cc5c3CCC5)CCC4)cnn2C1` (single isomer, unassigned) [XK], for which the “% PXR activation @ 10 μM” value at hPXR nuclear receptor was found to be 4%. Also, in data set [2] (LPS 200 ng/mL, ATP 1.75 mM, IL-1β), the 90% effect concentration (IC90) amounted to 560 nM.
On to `C[C@]1(CO)Cn2ncc([S@](N)(=O)=NC(=O)Nc3c4c(cc5c3CC5)CC4)c2O1` [Compound 2, (R,2R)-2-(hydroxymethyl)-2-methyl-N′-(tricyclo[6.2.0.0^3,6]deca-1,3(6), 7-trien-2-ylcarbamoyl)-2,3-dihydropyrazolo[5,1-b]oxazole-7-sulfonimidamide], for which the IC90 in data set [2] (setting [4]) is 43 nM; in data set [2] (Homo sapiens), under 100 nM. Besides, the bioavailability in data set [3] was 53%. In addition, the half-life in data set [3] (setting [5]) was over 2 h.
As to `C[C@]1(CO)Cn2ncc([S@](N)(=O)=NC(=O)Nc3c4c(c(F)c5c3CC5)CC4)c2O1` [Compound 6, (R,2R)-N′-((7-fluorotricyclo[6.2.0.0^3,6]deca-1,3(6),7-trien-2-yl)carbamoyl)-2-(hydroxymethyl)-2-methyl-2,3-dihydropyrazolo[5,1-b]oxazole-7-sulfonimidamide], the IC90 in data set [2] (setting [4]) was 55 nM; in data set [2] (Homo sapiens), under 100 nM. In addition, in data set [3], the bioavailability came to 48%. For the same compound, the half-life was 1.8 h in data set [3] (setting [5]) and over 1.5 h in data set [3] (read-out: half life).
`C[C@]1(CO)Cn2ncc([S@](N)(=O)=NC(=O)Nc3c4c(cc5c3CC5)CC4)c2O1` [Compound A, (R,2R)-2-(hydroxymethyl)-2-methyl-N-(tricyclo[6.2.0.0^3,6]deca-1,3(6),7-trien-2-ylcarbamoyl)-2,3-dihydropyrazolo[5,1-b]oxazole-7-sulfonimidamide] showed a pIC50 in data set [1] of 9.01.
`CC1(C)COc2c(S(N)(=O)=NC(=O)Nc3c4c(cc5c3CCC5)CCC4)cnn2C1` (stereo not shown) [XA]: the “% PXR activation @ 10 μM” value at hPXR nuclear receptor turned out to be 61%. Besides, the IC90 in data set [2] (setting [4]) came out at 480 nM. Also, the bioavailability in data set [3] was found to be 45%. In addition, the half-life in data set [3] (setting [5]) was 2 h.
`CC1(C)Cn2ncc(S(N)(=O)=NC(=O)Nc3c4c(cc5c3CCC5)CCC4)c2O1` (stereo not shown) [XB]: the “% PXR activation @ 10 μM” value on hPXR nuclear receptor was found to be 74%. Also, the concentration for an effect of 90% (IC90) in data set [2] (setting [4]) amounted to 290 nM. For the same compound, in data set [3], the bioavailability is 91%. Moreover, the half-life in data set [3] (setting [5]) is 0.87 h.
With `NS(=O)(=NC(=O)Nc1c2c(cc3c1CC3)CCC2)c1cnn2c1OCCC2` (stereo not shown) [XC], the “% PXR activation @ 10 μM” value on hPXR nuclear receptor is 26%. The IC90 in data set [2] (setting [4]) is 3400 nM.
As to `NS(=O)(=NC(=O)Nc1c2c(cc3c1CCC3)CCC2)c1cnn2c1OCCC2` (stereo not shown) [XD], the “% PXR activation @ 10 μM” value at hPXR nuclear receptor stood at 22%. The 90% effect concentration (IC90) in data set [2] (setting [4]) turned out to be 1700 nM.
Turning to `CC1(C)COc2c(S(N)(=O)=NC(=O)Nc3c4c(cc5c3CC5)CC4)cnn2C1` (stereo not shown) [XE], on hPXR nuclear receptor, the “% PXR activation @ 10 μM” value is reported as 63%. The IC90 in data set [2] (setting [4]) amounted to 520 nM. Besides, in data set [3], the bioavailability stood at 126%.
Take `NS(=O)(=NC(=O)Nc1c2c(cc3c1CC3)CC2)c1cnn2c1OCC2` (stereo not shown) [XF]: the “% PXR activation @ 10 μM” value on hPXR nuclear receptor turned out to be 15%. Moreover, the IC90 in data set [2] (setting [4]) worked out at 3300 nM. Further, in data set [3], the bioavailability turned out to be 54%.
`CC1(C)Cn2ncc(S(N)(=O)=NC(=O)Nc3c4c(cc5c3CC5)CC4)c2O1` (stereo not shown) [XH]: the “% PXR activation @ 10 μM” value at hPXR nuclear receptor is 81%. Also, the IC90 in data set [2] (setting [4]) was 130 nM. Also, in data set [3], the bioavailability stood at 85%. For the same compound, in data set [3] (setting [5]), the half-life was 1.9 h.
Take `CC1(C)Cn2ncc(S(N)(=O)=NC(=O)Nc3c4c(cc5c3CC5)CCC4)c2O1` (stereo not shown) [XI]: the “% PXR activation @ 10 μM” value at hPXR nuclear receptor came to 90%. Moreover, the 90% effect concentration (IC90) in data set [2] (setting [4]) came to 240 nM. For the same compound, in data set [3], the bioavailability was determined as 39%.
As for `NS(=O)(=NC(=O)Nc1c2c(cc3c1CCC3)CCC2)c1cnn2c1OC(CO)C2` (stereo not shown) [XL], on hPXR nuclear receptor, the “% PXR activation @ 10 μM” value stood at 3.7%. The IC90 in data set [2] (setting [4]) came to 390 nM.
The corresponding values for `NS(=O)(=NC(=O)Nc1c2c(cc3c1CCC3)CCC2)c1cnn2c1OCC(O)C2` (stereo not shown) [XM] are 2.4% and 2400 nM.
Consider `CC1(CO)Cn2ncc(S(N)(=O)=NC(=O)Nc3c4c(cc5c3CCC5)CCC4)c2O1` (stereo not shown) [XN], for which, on hPXR nuclear receptor, the “% PXR activation @ 10 μM” value came out at 6.2%. Besides, the bioavailability in data set [3] stood at 36%. In addition, in data set [3] (setting [5]), the half-life was 1.2 h.
As for `CNC1COc2c(S(N)(=O)=NC(=O)Nc3c4c(c(F)c5c3CC5)CC4)cnn2C1` (stereo not shown) [XO], at hPXR nuclear receptor, the “% PXR activation @ 10 μM” value came out at 3.3%. For the same compound, the IC90 in data set [2] (setting [4]) was found to be 110 nM. For the same compound, in data set [3], the bioavailability worked out at 32%. Also, the values for the half-life in data set [3] (setting [5]) and in data set [3] (read-out: half life) were 1.3 h and under 1 h, respectively.
Consider `COC1CN(C2COc3c(S(N)(=O)=NC(=O)Nc4c5c(cc6c4CC6)CC5)cnn3C2)C1` (stereo not shown) [XP], for which, in data set [2] (setting [4]), the IC90 came out at 130 nM. In data set [3], the bioavailability was 33%. In data set [3] (setting [5]), the half-life is 1.9 h.
